Test results: paper PMC9226319, “Peripherally restricted transthyretin-based delivery system for probes and therapeutics avoiding opioid-related side effects” (Nature Communications, 2022)
Where “and” joins values, the source holds several entries; their conditions need not be identical. Equal values may be shown once. Read-outs that look alike come from different tables or passages of the source.

Tests used:
[1] = target: TTR in human serum (Homo sapiens, UniProt P02766); assay: TTR serum fluorescent probe exclusion (FPE) selectivity assay; type: binding; settings: ligand 10 µM; for %FPE probe fluorescence: human serum, replicates
[2] = test system: male Sprague-Dawley rats; assay: Gastrointestinal (GI) transit (charcoal meal) assays; type: in vivo, rat
[3] = rat; for plasma concentration: IV 4.84 µmol/kg, individual animals
[4] = rat; for plasma concentration: SC 16 µmol/kg, individual animals
[5] = test system: male Sprague-Dawley rats; settings: rat, in vivo, sc
[6] = target: T1, kappa opioid receptor (rat) (Rattus norvegicus, UniProt P34975); settings: read-out: binding affinity to kappa-opioid receptor (Ki); cited from earlier work
T1 construct: Eurofins Cerep (France)

[7] = in vivo; settings: male, Sprague Dawley, rat, iv
[8] = in vivo; settings: male, Sprague Dawley, rat, iv; remark: listed apart in the source
[9] = in vivo; settings: male, Sprague Dawley, rat, sc
[10] = in vitro; settings: human, % Cell viability, replicates

T1 sequence (P34975 whole entry): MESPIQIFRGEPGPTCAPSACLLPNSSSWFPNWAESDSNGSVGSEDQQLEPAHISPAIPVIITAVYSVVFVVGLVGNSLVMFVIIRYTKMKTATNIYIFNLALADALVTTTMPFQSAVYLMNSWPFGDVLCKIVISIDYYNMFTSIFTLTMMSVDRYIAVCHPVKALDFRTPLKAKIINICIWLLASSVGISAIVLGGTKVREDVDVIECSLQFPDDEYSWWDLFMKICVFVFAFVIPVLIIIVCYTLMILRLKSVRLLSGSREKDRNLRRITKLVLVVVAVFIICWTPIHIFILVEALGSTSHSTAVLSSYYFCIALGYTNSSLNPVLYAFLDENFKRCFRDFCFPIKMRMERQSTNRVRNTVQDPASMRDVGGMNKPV

C=CCN1CC[C@]23c4c5ccc(O)c4O[C@H]2[C@@H](OCCOCCOCCOCCOCCOCCOCCOC)CC[C@@]3(O)[C@H]1C5 [Naloxegol, reference compound]
% TTR occupancy in human serum ([1]; FPE probe 3.6 µM, 3 h reading relative to probe alone, text mean ± s.d., table replicates): 14.09% and 13.76% and 18.08% and 17.39% | %FPE probe fluorescence ([1]; time 0.000 h): 0.000% | %FPE probe fluorescence ([1]; time 0.083 h): -1.162% and 0.076% and 1.061% and 2.494% | %FPE probe fluorescence ([1]; time 0.250 h): 12.642% and 13.881% and 14.653% and 16.580% | %FPE probe fluorescence ([1]; time 0.500 h): 29.770% and 29.601% and 35.277% and 32.978% | %FPE probe fluorescence ([1]; time 1.000 h): 51.856% and 49.775% and 51.097% and 53.857% | %FPE probe fluorescence ([1]; time 1.250 h): 58.967% and 56.462% and 55.901% and 61.434% | %FPE probe fluorescence ([1]; time 1.500 h): 63.979% and 62.154% and 61.352% and 66.100% | %FPE probe fluorescence ([1]; time 1.750 h): 70.669% and 69.322% and 65.355% and 73.049% | %FPE probe fluorescence ([1]; time 2.000 h): 72.778% and 74.065% and 70.075% and 75.601% | %FPE probe fluorescence ([1]; time 2.250 h): 79.286% and 77.129% and 72.043% and 79.051% | %FPE probe fluorescence ([1]; time 2.500 h): 80.847% and 80.185% and 76.560% and 80.986% | %FPE probe fluorescence ([1]; time 2.750 h): 84.987% and 82.916% and 77.033% and 84.908% | %FPE probe fluorescence ([1]; time 3.000 h): 85.911% and 86.240% and 81.919% and 82.607% | %FPE probe fluorescence ([1]; time 3.500 h): 89.826% and 88.173% and 84.101% and 88.948% | %FPE probe fluorescence ([1]; time 3.750 h): 85.342% and 89.201% and 87.815% and 89.262% | %FPE probe fluorescence ([1]; time 4.000 h): 92.972% and 91.077% and 85.636% and 94.755% | %FPE probe fluorescence ([1]; time 4.250 h): 92.674% and 90.338% and 87.389% and 92.827% | %FPE probe fluorescence ([1]; time 4.500 h): 93.747% and 95.743% and 86.912% and 94.592% | %FPE probe fluorescence ([1]; time 4.750 h): 93.049% and 92.357% and 88.468% and 95.740% | %FPE probe fluorescence ([1]; time 5.000 h): 94.380% and 93.149% and 88.822% and 94.667% | %FPE probe fluorescence ([1]; time 5.250 h): 94.178% and 93.087% and 90.315% and 94.928% | %FPE probe fluorescence ([1]; time 5.500 h): 92.258% and 94.965% and 88.366% and 97.216% | %FPE probe fluorescence ([1]; time 5.750 h): 93.772% and 93.937% and 90.079% and 96.029% | %FPE probe fluorescence ([1]; time 6.000 h): 96.902% and 93.100% and 91.727% and 96.188% | GI transit 2.5h as % of saline group ([2]; 3.5 μmol/kg, 2.5h, individual animals (Fig.9b)): 41.7% and 40.4% and 35.2% and 39.7% and 39.3% and 42.0% | GI transit as % of saline group ([2]; rat, in vivo, sc): 39.7 ± 2.5% | plasma concentration ([3]; 0.03 h): 2193.9 nM and 2301.3 nM | plasma concentration ([3]; 0.5 h): 144.7 nM and 149.7 nM | plasma concentration ([3]; 1 h): 58 nM and 27.2 nM and 41.1 nM | plasma concentration ([3]; 2 h): 16.1 nM and 15.5 nM | plasma concentration ([3]; 4 h): 4.6 nM and 6.8 nM | plasma concentration ([3]; 6 h): 1.8 nM and 4 nM and 5.8 nM | plasma concentration ([3]; 8 h): 2.3 nM and 1.4 nM | k ([3]; single IV bolus 4.84 µmol/kg): 0.41 ± 0.06 h⁻¹ | plasma concentration ([4]; 0.03 h): 247 nM and 451 nM and 135 nM | plasma concentration ([4]; 0.25 h): 1100 nM and 1090 nM | plasma concentration ([4]; 0.5 h): 1750 nM and 2300 nM | plasma concentration ([4]; 0.75 h): 1870 nM and 2090 nM | plasma concentration ([4]; 1 h): 1410 nM and 2160 nM | plasma concentration ([4]; 2 h): 517 nM and 744 nM | plasma concentration ([4]; 4 h): 95.6 nM and 149 nM and 239 nM | plasma concentration ([4]; 6 h): 19 nM and 31.8 nM and 56.3 nM | plasma concentration ([4]; 8 h): 3.9 nM and 6.7 nM and 10.6 nM | k ([4]; single SC dose 16 µmol/kg): 0.79 ± 0.02 h⁻¹ | hot plate latency [5]: 17.6 ± 4.0 s | Ki [6]: 8.7 nM | Kp ([7]; percentage CSF to plasma ratio): 0.15 | Kp ([7]; percentage brain to plasma ratio): 0.29 | AUC(0-inf) ([8]; 4.84 umol/kg): 0.741 ± 0.0336 µM·h | Vd ([8]; 4.84 umol/kg): 2.76 ± 0.39 L/kg | clearance ([8]; 4.84 umol/kg): 109 mL/min/kg | half-life ([8]; 4.84 umol/kg): 1.72 ± 0.27 h | concentration at 0.03 h ([8]; 4.84 µmol/kg, plasma concentration, IV 4.84 µmol/kg, 0.03 h, individual animals): 1900 nM | concentration at 0.5 h ([8]; 4.84 µmol/kg, plasma concentration, IV 4.84 µmol/kg, 0.5 h, individual animals): 206 nM | concentration at 2 h ([8]; 4.84 µmol/kg, plasma concentration, IV 4.84 µmol/kg, 2 h, individual animals): 17.8 nM | concentration at 4 h ([8]; 4.84 µmol/kg, plasma concentration, IV 4.84 µmol/kg, 4 h, individual animals): 9.2 nM | concentration at 8 h ([8]; 4.84 µmol/kg, plasma concentration, IV 4.84 µmol/kg, 8 h, individual animals): 2.5 nM | AUC(0-inf) ([9]; 16 umol/kg): 3.68 ± 0.566 µM·h | CL/F ([9]; 16 umol/kg): 72.8 mL/min/kg | Vd/F ([9]; 16 umol/kg): 5.58 ± 0.96 L/kg | half-life ([9]; 16 umol/kg): 0.88 ± 0.02 h | concentration at 0.25 h ([9]; 16 µmol/kg, plasma concentration, SC 16 µmol/kg, 0.25 h, individual animals): 1930 nM | concentration at 0.5 h ([9]; 16 µmol/kg, plasma concentration, SC 16 µmol/kg, 0.5 h, individual animals): 2470 nM | concentration at 0.75 h ([9]; 16 µmol/kg, plasma concentration, SC 16 µmol/kg, 0.75 h, individual animals): 2870 nM | concentration at 1 h ([9]; 16 µmol/kg, plasma concentration, SC 16 µmol/kg, 1 h, individual animals): 1970 nM | concentration at 2 h ([9]; 16 µmol/kg, plasma concentration, SC 16 µmol/kg, 2 h, individual animals): 548 nM | viability at 72 h, 10 µM ([10]; 10 μM): 103% | viability at 72 h, 100 µM ([10]; 100 μM): 99%
